Measured values: EP0891773A1, “Use of gamma-linolenic acid for preventing oxydative stress” (priority 1997, dated 1999)
Where two headings read alike, the source gives them in different places.

System: fibroblastes dermiques humains normaux
Test: Protective effect on normal human dermal fibroblasts under oxidative stress (TBH 10^-4 M, 1 h); cell viability by neutral red uptake
Format: cell-based
Conditions: for activity at 0.1 µM: 0,1 µM
Experimental: Mesure de l'effet protecteur de l'acide γ-linolénique sur des fibroblastes dermiques humains normaux soumis à un stress oxydatif:
Des cultures de fibroblastes dermiques humains normaux sont réalisées selon la méthode décrite par Gilchrest B. A. dans J. Gerontol., vol.35, pp. 537-541, 1980.
A J(0) on ensemence des plaques multipuits de type COSTAR à raison de 50000 cellules par puits. Les cellules sont cultivées dans du milieu MEM Eagle (GIBCO) contenant 10% de sérum de veau foetal, 2 mM de L-glutamine, 1% acides aminés non essentiels, 1 mM pyruvate de sodium et 1% d'un mélange antibiotiques/antimicotiques vendu par la société GIBCO.
A J(+1) le milieu de culture est remplacé par du milieu MEM sans sérum de veau foetal contenant ou ne contenant pas (témoin) la substance à tester.
Des solutions d'acides gras essentiels sont préparés dans des solutions à 0.1 % d'albumine humaine. Les solutions mères sont à 2. 10^-3 M , la dilution minimale est à 10^-4 M dans le milieu de culture sans sérum de veau foetal. L'addition de vitamine E à 30 µM final permet d'éviter les problèmes d'autooxydation des acides gras. Les cellules sont traitées 3 jours sans changement de milieu.
Un stress oxydatif est induit à J(+4). Pour cela, le milieu de culture est retiré et les plaques sont rincées avec du tampon phosphate salin (PBS). 50% des puits sont traités par une solution de terbutyl hydroperoxyde (TBH) à 10^-4 M, les 2 autres puits étant laissés en PBS et l'incubation se poursuit pendant une heure dans un incubateur à 37°C en atmosphère contenant 5% de CO2.
Au bout d'une heure, les plaques sont rincées 3 fois au PBS pour enlever toute trace de TBH. Une solution mère de rouge neutre à […] est diluée au 1/40 dans un milieu minimum (MEM de marque GIBCO). La solution diluée est placée 1h au bain marie à 37°C pour une bonne dissolution puis filtrée sur 0.22 µm pour éliminer les cristaux résiduels. La solution ainsi préparée est ajoutée sur les cellules et les plaques sont mises à l'incubateur à 37°C en atmosphère contenant 5% de CO2 pour 3 h. Après incubation les plaques sont vidées de leur milieu et rincées au PBS. Une solution à 0.4% de formaldéhyde et 1% de chlorure de calcium dans de l'eau est ajoutée dans chaque puits pour une durée de 1 minute. On remplace alors cette solution par une solution à 49% d'éthanol pur dans l'eau et 1% d'acide acétique glacial. On laisse la coloration se développer 30 mn à température ambiante et on lit les plaques au spectrophotomètre à 540 nm.
Pour chaque condition (traité ou témoin), le calcul est effectué de la manière suivante :
Proportion de cellules stressées : rapport de la moyenne des densités optiques mesurées pour les puits traités sur la moyenne des densités optiques mesurées pour les puits non traités.
Pourcentage de résistance : Proportion de cellules stressées dans l'essai sur proportion de cellules stressées dans le témoin x 100
Par ce calcul, le témoin est considéré à 100 % de protection contre le stress oxydatif et les produits présentent un effet protecteur supérieur ou inférieur au témoin.

[1] = Fibroblast, table c, comparison with known antioxidants, 100 µM, control = 100, read-out: Pourcentage de résistance
[2] = Fibroblast, table a, comparison of essential fatty acids, 10 µM, 3 days pretreatment, then TBH 10^-4 M 1 h, control = 100, read-out: Pourcentage de résistance
[3] = Fibroblast, table c, comparison with known antioxidants, 10 µM, control = 100, read-out: Pourcentage de résistance
[4] = Fibroblast, table c, comparison with known antioxidants, 1 mM, control = 100, read-out: Pourcentage de résistance

## S=C(S)N1CCCC1 [Pyrrolidine dithiocarbamate]
Fibroblast, table c, comparison with known antioxidants, 20 µM, control = 100, read-out: Pourcentage de résistance
  activity at 20 µM: 97%
[1]
  activity at 100 µM: 112%

## CCCCC/C=C\C/C=C\C/C=C\CCCCC(=O)O [Acide γ-Linolénique, acide γ-linolénique]
Fibroblast, table b, dose effect, 0,01 µM, control = 100, read-out: Pourcentage de résistance
  activity at 0.01 µM: 123%
Fibroblast, table b, dose effect, control = 100, read-out: Pourcentage de résistance
  activity at 0.1 µM: 130%
Fibroblast, table b, dose effect, 1 µM, control = 100, read-out: Pourcentage de résistance
  activity at 1 µM: 119%
Fibroblast, table b, dose effect, 10 µM, control = 100, read-out: Pourcentage de résistance
  activity at 10 µM: 121%
Fibroblast, table b, dose effect, 100 µM, control = 100, read-out: Pourcentage de résistance
  activity at 100 µM: 95%
Fibroblast, table c, comparison with known antioxidants, control = 100, read-out: Pourcentage de résistance
  activity at 0.1 µM: 112%
[2]
  activity at 10 µM: 124%
Concentration of maximum effect in the dose-effect test (table b)
  effet maximum: 0,1 µM
Conclusion in words on table a (10 µM), only this fatty acid among those tested
  résistance au stress oxydatif: augmente la résistance au stress oxydatif
Conclusion in words on table c, versus reference antioxidants
  effet protecteur du stress oxydatif: comparable à celui de molécules reconnues comme anti-oxydants de référence

## CCCCC/C=C\C/C=C\CCCCCCCC(=O)O [Acide Linoléique]
[2]
  activity at 10 µM: 100%

## CC(=O)N[C@@H](CS)C(=O)O [N-Acétyl cystéine]
[3]
  activity at 10 µM: 94%
[1]
  activity at 100 µM: 103%
[4]
  activity at 1000 µM: 107%

## N[C@@H](CCC(=O)N[C@@H](CS)C(=O)NCC(=O)O)C(=O)O [Glutathion]
[3]
  activity at 10 µM: 95%
[1]
  activity at 100 µM: 93%
[4]
  activity at 1000 µM: 100%

## Vitamine E
Table c, comparison with known antioxidants, 10 µM, control = 100
  Pourcentage de résistance: 112%
Table c, comparison with known antioxidants, 100 µM, control = 100
  Pourcentage de résistance: 107%
Table c, comparison with known antioxidants, 1 mM, control = 100
  Pourcentage de résistance: 111%
